Assay results published in patent US20210308096A1, “COMPOSITION FOR PREVENTING OR TREATING PRURITUS” (INDUSTRIAL COOPERATION FOUNDATION CHONBUK NATIONAL …, priority 2017, published 2021).

Legend:
Type in all cases: in vivo, BALB/c mice
[1] = system: chloroquine-induced pruritus; test: Chloroquine-induced pruritus, number of scratching actions (MicroAct); details: mice; 1 μM and 10 μM injected subcutaneously together with 200 μg chloroquine; counted for 1 hour; p<0.01 versus chloroquine-treated group; FIG. 2
Protocol: (§1) Six-week-old, specific-pathogen-free male BALB/c mice were purchased from Orient Bio Korea Inc. (Gapyeong, Gyeonggi-do, Korea) and housed in a laminar flow cabinet. They were provided with standard solid chows ad libitum. At the onset of the test, the mice were 7-8 weeks old. All animal care and use were performed in accordance with the protocol of the Institutional Animal Care and Use Committee of the Chonbuk National University Medical School. Isoflavone-based compounds genistein, daidzein, glycitein and equol were purchased from Sigma. They were dissolved in DMSO and diluted with distilled water. […] Histamine, chloroquine and DNCB were also purchased from Sigma. Pruritus was induced by subcutaneously injecting histamine and chloroquine to the mice. Specifically, 0.1 mL of 2 mg/mL histamine and 4 mg/mL chloroquine were injected respectively. Pruritus was evaluated using MicroAct (Neuroscience, Inc., Tokyo, Japan) according to the method established by the company. The mouse was anesthetized and a magnet piece was inserted into the foot skin of the left hind leg. The mouse was put in a chamber surrounded by a coil and the number of scratching actions was recorded by a computer based on the electrical field generated by the scratching. The experimental conditions of the MicroAct were set as follows. Threshold p-p limit, 0.125 V; threshold minimum duration, 0.2 s; maximum amplitude range, 0.5 V; minimum amplitude range, 0.05 V; maximum frequency, 20 Hz; minimum frequency, 5 Hz. Recording was made only for 3 or more consecutive scratching actions. All the experiments were performed for at least 3 times and 2-3 mice were used per each group. Statistical data were represented by means and standard deviations. Statistical comparison was conducted by one-way ANOVA and the Fisher test. Significant difference between the groups was determined by the unpaired Student's t-test. The significant level of the p-value was less than 0.05. In order to measure the effect of inhibiting chloroquine-induced pruritus of genistein, daidzein, glycitein and equol, 200 μg of chloroquine was dissolved in 0.1 mL of physiological saline and injected subcutaneously to induce pruritus. After injecting each of genistein, daidzein, glycitein and equol at 1 μM and 10 μM together with the chloroquine, the number of scratching actions was counted for 1 hour.

[2] = system: DNCB-induced pruritus; test: DNCB-induced pruritus, number of scratching actions (MicroAct); details: DNCB-sensitized mice; 1 μM or 10 μM applied on the right ear with DNCB; counted for 1 hour; p<0.01 versus DNCB-treated group; FIG. 3
Protocol: Six-week-old, specific-pathogen-free male BALB/c mice were purchased from Orient Bio Korea Inc. (Gapyeong, Gyeonggi-do, Korea) and housed in a laminar flow cabinet. They were provided with standard solid chows ad libitum. At the onset of the test, the mice were 7-8 weeks old. All animal care and use were performed in accordance with the protocol of the Institutional Animal Care and Use Committee of the Chonbuk National University Medical School. Isoflavone-based compounds genistein, daidzein, glycitein and equol were purchased from Sigma. They were dissolved in DMSO and diluted with distilled water. […] Histamine, chloroquine and DNCB were also purchased from Sigma. Pruritus was induced with DNCB. Specifically, after removing hair from the right ear of the mouse, 20 μL of 1% DNCB dissolved in a mixture of olive oil and ethanol (1:4) was applied for sensitization. 10 μL of 0.5% DNCB was applied on the same ear 7 days later (Exp. Dermatol., 2002, 11:285-291). Pruritus was evaluated using MicroAct (Neuroscience, Inc., Tokyo, Japan) according to the method established by the company. The mouse was anesthetized and a magnet piece was inserted into the foot skin of the left hind leg. The mouse was put in a chamber surrounded by a coil and the number of scratching actions was recorded by a computer based on the electrical field generated by the scratching. The experimental conditions of the MicroAct were set as follows. Threshold p-p limit, 0.125 V; threshold minimum duration, 0.2 s; maximum amplitude range, 0.5 V; minimum amplitude range, 0.05 V; maximum frequency, 20 Hz; minimum frequency, 5 Hz. Recording was made only for 3 or more consecutive scratching actions. All the experiments were performed for at least 3 times and 2-3 mice were used per each group. Statistical data were represented by means and standard deviations. Statistical comparison was conducted by one-way ANOVA and the Fisher test. Significant difference between the groups was determined by the unpaired Student's t-test. The significant level of the p-value was less than 0.05. In order to measure the effect of inhibiting DNCB-induced pruritus of genistein, daidzein, glycitein and equol, 20 μL of a 1% DNCB solution was applied on the right ear of the mouse for 7 days for sensitization. 10 μL of 0.5% DNCB was applied on the same ear 7 days later, 1 μM or 10 μM genistein, daidzein, glycitein or equol and 1% DNCB dissolved in physiological saline was applied on the right ear (physiological saline was applied for a negative control group) and the number of scratching actions was counted for 1 hour.

[3] = system: SLIGRL-induced pruritus (agonist for the protease activated receptor 2); test: SLIGRL-induced pruritus, number of scratching actions (MicroAct); details: mice; 1 μM and 10 μM injected subcutaneously together with 20 μg SLIGRL; counted for 1 hour; p<0.05 versus SLIGRL-treated group; FIG. 4
Protocol: Six-week-old, specific-pathogen-free male BALB/c mice were purchased from Orient Bio Korea Inc. (Gapyeong, Gyeonggi-do, Korea) and housed in a laminar flow cabinet. They were provided with standard solid chows ad libitum. At the onset of the test, the mice were 7-8 weeks old. All animal care and use were performed in accordance with the protocol of the Institutional Animal Care and Use Committee of the Chonbuk National University Medical School. Isoflavone-based compounds genistein, daidzein, glycitein and equol were purchased from Sigma. They were dissolved in DMSO and diluted with distilled water. […] Histamine, chloroquine and DNCB were also purchased from Sigma. Pruritus was induced with SLIGRL. Specifically, 20 μg of SLIGRL was dissolved in 0.1 mL of physiological saline and injected subcutaneously to induce pruritus. Pruritus was evaluated using MicroAct (Neuroscience, Inc., Tokyo, Japan) according to the method established by the company. The mouse was anesthetized and a magnet piece was inserted into the foot skin of the left hind leg. The mouse was put in a chamber surrounded by a coil and the number of scratching actions was recorded by a computer based on the electrical field generated by the scratching. The experimental conditions of the MicroAct were set as follows. Threshold p-p limit, 0.125 V; threshold minimum duration, 0.2 s; maximum amplitude range, 0.5 V; minimum amplitude range, 0.05 V; maximum frequency, 20 Hz; minimum frequency, 5 Hz. Recording was made only for 3 or more consecutive scratching actions. All the experiments were performed for at least 3 times and 2-3 mice were used per each group. Statistical data were represented by means and standard deviations. Statistical comparison was conducted by one-way ANOVA and the Fisher test. Significant difference between the groups was determined by the unpaired Student's t-test. The significant level of the p-value was less than 0.05. In order to measure the effect of inhibiting pruritus induced by SLIGRL, which is an agonist for the protease activated receptor 2, of genistein, daidzein, glycitein and equol, 20 μg of SLIGRL was dissolved in 0.1 mL of physiological saline and injected subcutaneously to induce pruritus. After injecting each of genistein, daidzein, glycitein and equol at 1 μM and 10 μM together with the SLIGRL, the number of scratching actions was counted for 1 hour.

[4] = system: histamine-induced pruritus; test: Histamine-induced pruritus, number of scratching actions (MicroAct); details: mice; 1 μM and 10 μM injected subcutaneously together with 100 μg histamine; counted for 1 hour; p<0.01 versus histamine-treated group; FIG. 1
Protocol: as §1, with “inhibiting histamine-induced” for “inhibiting chloroquine-induced”, “equol, 100” for “equol, 200”, “of histamine” for “of chloroquine”, “the histamine,” for “the chloroquine,”

[5] = system: TSLP-induced pruritus; test: TSLP-induced pruritus, number of scratching actions (MicroAct); details: mice; 1 μM and 10 μM injected subcutaneously together with 0.67 μg TSLP; counted for 1 hour; p<0.05 versus TSLP-treated group; FIG. 5
Protocol: Six-week-old, specific-pathogen-free male BALB/c mice were purchased from Orient Bio Korea Inc. (Gapyeong, Gyeonggi-do, Korea) and housed in a laminar flow cabinet. They were provided with standard solid chows ad libitum. At the onset of the test, the mice were 7-8 weeks old. All animal care and use were performed in accordance with the protocol of the Institutional Animal Care and Use Committee of the Chonbuk National University Medical School. Isoflavone-based compounds genistein, daidzein, glycitein and equol were purchased from Sigma. They were dissolved in DMSO and diluted with distilled water. […] Histamine, chloroquine and DNCB were also purchased from Sigma. Pruritus was induced with TSLP. 0.67 μg of TSLP was dissolved in 0.1 mL of physiological saline and injected subcutaneously to induce pruritus. Pruritus was evaluated using MicroAct (Neuroscience, Inc., Tokyo, Japan) according to the method established by the company. The mouse was anesthetized and a magnet piece was inserted into the foot skin of the left hind leg. The mouse was put in a chamber surrounded by a coil and the number of scratching actions was recorded by a computer based on the electrical field generated by the scratching. The experimental conditions of the MicroAct were set as follows. Threshold p-p limit, 0.125 V; threshold minimum duration, 0.2 s; maximum amplitude range, 0.5 V; minimum amplitude range, 0.05 V; maximum frequency, 20 Hz; minimum frequency, 5 Hz. Recording was made only for 3 or more consecutive scratching actions. All the experiments were performed for at least 3 times and 2-3 mice were used per each group. Statistical data were represented by means and standard deviations. Statistical comparison was conducted by one-way ANOVA and the Fisher test. Significant difference between the groups was determined by the unpaired Student's t-test. The significant level of the p-value was less than 0.05. In order to measure the effect of inhibiting thymic stromal lymphopoietin (TSLP)-induced pruritus of genistein, daidzein, glycitein and equol, 0.67 μg of TSLP solution dissolved in 0.1 mL of physiological saline and injected subcutaneously to induce pruritus. After injecting each of genistein, daidzein, glycitein and equol at 1 μM and 10 μM together with the TSLP, the number of scratching actions was counted for 1 hour.

SMILES	Effect of inhibiting chloroquine-induced pruritus (number of scratching actions) [1]	Effect of inhibiting DNCB-induced pruritus (number of scratching actions) [2]	Effect of inhibiting SLIGRL-induced pruritus (number of scratching actions) [3]	Effect of inhibiting histamine-induced pruritus (number of scratching actions) [4]	Effect of inhibiting TSLP-induced pruritus (number of scratching actions) [5]
O=c1c(-c2ccc(O)cc2)coc2cc(O)cc(O)c12 [Genistein, genistein]	significantly inhibited	significantly inhibited	significantly inhibited	significantly inhibited	significantly inhibited
O=c1c(-c2ccc(O)cc2)coc2cc(O)ccc12 [daidzein]	significantly inhibited	significantly inhibited	significantly inhibited	significantly inhibited	significantly inhibited
Oc1ccc([C@H]2COc3cc(O)ccc3C2)cc1 [equol]	did not inhibit	did not inhibit	did not inhibit	did not inhibit	did not inhibit
COc1cc2c(=O)c(-c3ccc(O)cc3)coc2cc1O [glycitein]	did not inhibit	did not inhibit	did not inhibit	did not inhibit	did not inhibit
